For 13 compounds, IC50 results are on record in paper PMC5421785, “Citrullination only infrequently impacts peptide binding to HLA class II MHC” (PLoS ONE, 2017).

The term IC50 denotes the concentration needed to halve the response being measured.

For one assay, the target named is T1, HLA-DRB1*01:01 (Homo sapiens, UniProt P01903+P01911, A100R/D57E/F55L/F60I/F76Y/I96L/L162R/M171V/P40L/Q125E/R42F/V115G/Y59C).
T1 construct: EBV transformed homozygous cell lines were used as sources of MHC molecules; endogenous in cells; host or cells: EBV transformed homozygous cell lines
The assay can be described thus: HLA class II peptide binding, inhibition of radiolabeled peptide binding to purified MHC.

A further assay has as its target T2, HLA-DRB1*04:01 (Homo sapiens, UniProt P01903+P01911, A100K/A169T/F76Y/I96L/K127E/L162R/M171V/N62H/P40V/Q125Y/R42H/S133A/S149N/S66Y/V115G/V209L/W38E).
T2 construct: EBV transformed homozygous cell lines were used as sources of MHC molecules; endogenous in cells; host or cells: EBV transformed homozygous cell lines
The description is as above.

[1] abbreviates: citrullinated 15-mer (X), purified MHC, inhibition of radiolabeled peptide binding, dash = IC50 >40,000 nM, read-out: DRB1*01:01 binding capacity, Cit peptide (IC50 nM).
Where [2] appears, read: citrullinated 15-mer (X), purified MHC, inhibition of radiolabeled peptide binding, dash = IC50 >40,000 nM, read-out: DRB1*04:01 binding capacity, Cit peptide (IC50 nM).
[3] abbreviates: read-out: DRB1*01:01 binding capacity, WT peptide (IC50 nM).
[4] abbreviates: read-out: DRB1*04:01 binding capacity, WT peptide (IC50 nM).

Like-named read-outs stand apart in the source and are kept apart here. Square brackets hold non-standard residues; d marks the D form. Peptide text beside a SMILES is read from it. Cit = NC(=O)NCCC[C@H](N)C(=O)O

In the case of `CC[C@H](C)[C@H](NC(=O)[C@H](CC(=O)O)NC(=O)[C@H](CCC(=O)O)NC(=O)[C@H](C)NC(=O)[C@H](CC(C)C)NC(=O)[C@H](CC(N)=O)NC(=O)[C@H](CC(=O)O)NC(=O)[C@H](CCCNC(N)=O)NC(=O)[C@H](CCC(=O)O)NC(=O)[C@@H](NC(=O)[C@H](CCC(=O)O)NC(=O)[C@@H](N)C(C)C)C(C)C)C(=O)N[C@@H](CCSC)C(=O)N[C@@H](CCCNC(=N)N)C(=O)N[C@@H](CC(C)C)C(=O)O` [VEVEXDNLAEDIMRL] (H-VEVE[Cit]DNLAEDIMRL-OH), the 50% inhibitory concentration (IC50) on HLA-DRB1*01:01 (setting [1]) was determined as 27100 nM; on HLA-DRB1*04:01 (setting [2]), 16300 nM.
As to `CC(C)C[C@H](NC(=O)[C@H](CC(C)C)NC(=O)[C@@H](NC(=O)[C@H](CC(C)C)NC(=O)[C@H](CC(C)C)NC(=O)[C@@H](N)C(C)C)[C@@H](C)O)C(=O)N[C@H](C(=O)N[C@@H](C)C(=O)N[C@@H](C)C(=O)N[C@H](C(=O)N[C@@H](CC(C)C)C(=O)N[C@@H](CCCNC(N)=O)C(=O)N[C@@H](CS)C(=O)N[C@@H](CCC(N)=O)C(=O)NCC(=O)O)C(C)C)C(C)C` [VLLTLLVAAVLXCQG] (H-VLLTLLVAAVL[Cit]CQG-OH), the IC50 at HLA-DRB1*01:01 (citrullinated 15-mer peptide (X = citrulline), purified HLA-DRB1*01:01, read-out: DRB1*01:01 binding capacity, Cit peptide (IC50 nM)) is 29 nM; on HLA-DRB1*04:01 (citrullinated 15-mer peptide (X = citrulline), purified HLA-DRB1*04:01, read-out: DRB1*04:01 binding capacity, Cit peptide (IC50 nM)), greater than 40000 nM.
For the compound `CSCC[C@H](NC(=O)[C@H](CCCNC(N)=O)NC(=O)[C@H](CCCNC(=N)N)NC(=O)[C@H](Cc1ccc(O)cc1)NC(=O)[C@H](CO)NC(=O)[C@H](CO)NC(=O)[C@H](CO)NC(=O)[C@H](CO)NC(=O)[C@@H](N)C(C)C)C(=O)N[C@@H](Cc1ccccc1)C(=O)NCC(=O)NCC(=O)N1CCC[C@H]1C(=O)NCC(=O)N[C@H](C(=O)O)[C@@H](C)O` [VSSSSYRXMFGGPGT] (H-VSSSSYR[Cit]MFGGPGT-OH), the values for the IC50 on HLA-DRB1*01:01 (setting [1]) and on HLA-DRB1*04:01 (setting [2]) were 60 nM and 974 nM, respectively.
Take `CSCC[C@H](NC(=O)[C@H](CCCNC(=N)N)NC(=O)[C@H](CCCNC(N)=O)NC(=O)[C@H](Cc1ccc(O)cc1)NC(=O)[C@H](CO)NC(=O)[C@H](CO)NC(=O)[C@H](CO)NC(=O)[C@H](CO)NC(=O)[C@@H](N)C(C)C)C(=O)N[C@@H](Cc1ccccc1)C(=O)NCC(=O)NCC(=O)N1CCC[C@H]1C(=O)NCC(=O)N[C@H](C(=O)O)[C@@H](C)O` [VSSSSYXRMFGGPGT] (H-VSSSSY[Cit]RMFGGPGT-OH): the IC50 at HLA-DRB1*01:01 (setting [1]) was 37 nM; at HLA-DRB1*04:01 (setting [2]), 906 nM.
For `CC(C)C[C@H](NC(=O)[C@H](C)NC(=O)[C@H](CO)NC(=O)CNC(=O)[C@H](CC(C)C)NC(=O)[C@H](CO)NC(=O)[C@H](Cc1ccc(O)cc1)NC(=O)[C@@H](NC(=O)[C@H](CCCNC(=N)N)NC(=O)[C@@H](NC(=O)[C@H](CO)NC(=O)[C@@H](NC(=O)[C@@H](NC(=O)[C@@H](N)C(C)C)[C@@H](C)O)[C@@H](C)O)[C@@H](C)O)[C@@H](C)O)C(=O)N[C@@H](CCCNC(N)=O)C(=O)O` [VTTSTRTYSLGSALX] (H-VTTSTRTYSLGSAL[Cit]-OH), the IC50 at HLA-DRB1*01:01 (setting [1]) turned out to be 9.6 nM; on HLA-DRB1*04:01 (setting [2]), 847 nM.
The corresponding values for `CC(C)C[C@H](NC(=O)[C@H](C)NC(=O)[C@H](CO)NC(=O)CNC(=O)[C@H](CC(C)C)NC(=O)[C@H](CO)NC(=O)[C@H](Cc1ccc(O)cc1)NC(=O)[C@@H](NC(=O)[C@H](CCCNC(N)=O)NC(=O)[C@@H](NC(=O)[C@H](CO)NC(=O)[C@@H](NC(=O)[C@@H](NC(=O)[C@@H](N)C(C)C)[C@@H](C)O)[C@@H](C)O)[C@@H](C)O)[C@@H](C)O)C(=O)N[C@@H](CCCNC(=N)N)C(=O)O` [VTTSTXTYSLGSALR] (H-VTTST[Cit]TYSLGSALR-OH) are 7.2 nM and 1480 nM.
Taken in the same sequence, the figures for `CC[C@H](C)[C@H](NC(=O)[C@H](CCCCN)NC(=O)[C@H](CC(N)=O)NC(=O)[C@H](CCC(N)=O)NC(=O)[C@H](CCC(N)=O)NC(=O)[C@H](CCC(=O)O)NC(=O)[C@H](CC(C)C)NC(=O)[C@H](Cc1ccccc1)NC(=O)[C@H](CCCNC(N)=O)NC(=O)[C@@H](N)C(C)C)C(=O)N[C@@H](CC(C)C)C(=O)N[C@@H](CC(C)C)C(=O)N[C@@H](C)C(=O)N[C@@H](CCC(=O)O)C(=O)N[C@@H](CC(C)C)C(=O)O` [VXFLEQQNKILLAEL] were 7.8 nM and 6590 nM.
On to `CC(C)C[C@H](NC(=O)[C@H](C)NC(=O)[C@H](CO)NC(=O)CN)C(=O)N[C@@H](CCCNC(=N)N)C(=O)N1CCC[C@H]1C(=O)N[C@@H](CO)C(=O)N[C@H](C(=O)N[C@@H](CO)C(=O)N[C@@H](CCCNC(=N)N)C(=O)N[C@@H](CO)C(=O)N[C@@H](CC(C)C)C(=O)N[C@@H](Cc1ccc(O)cc1)C(=O)N[C@@H](C)C(=O)N[C@@H](CO)C(=O)O)[C@@H](C)O` [Vimentin 41 WT], for which the 50% inhibitory concentration (IC50) worked out at 3.4 nM at HLA-DRB1*01:01 (setting [3]) and 860 nM at HLA-DRB1*04:01 (setting [4]).
Taken in the same sequence, the figures for `CC(C)C[C@H](NC(=O)[C@H](CO)NC(=O)[C@H](CCCNC(=N)N)NC(=O)[C@H](CO)NC(=O)[C@@H](NC(=O)[C@H](CO)NC(=O)[C@@H]1CCCN1)[C@@H](C)O)C(=O)N[C@@H](Cc1ccc(O)cc1)C(=O)N[C@@H](C)C(=O)N[C@@H](CO)C(=O)N[C@@H](CO)C(=O)N1CCC[C@H]1C(=O)NCC(=O)NCC(=O)N[C@H](C(=O)O)C(C)C` [Vimentin 46 WT] were 290 nM and 1050 nM.
For `CC(C)C[C@H](NC(=O)[C@@H](N)CO)C(=O)N[C@@H](Cc1ccc(O)cc1)C(=O)N[C@@H](C)C(=O)N[C@@H](CO)C(=O)N[C@@H](CO)C(=O)N1CCC[C@H]1C(=O)NCC(=O)NCC(=O)N[C@H](C(=O)N[C@@H](Cc1ccc(O)cc1)C(=O)N[C@@H](C)C(=O)N[C@H](C(=O)N[C@@H](CCCNC(=N)N)C(=O)N[C@@H](CO)C(=O)O)[C@@H](C)O)C(C)C` [Vimentin 51 WT], the IC50 stood at 75 nM at HLA-DRB1*01:01 (setting [3]) and 6110 nM on HLA-DRB1*04:01 (setting [4]).
Taken in the same sequence, the figures for `CC(C)C[C@H](NC(=O)[C@H](CO)NC(=O)[C@H](Cc1ccccc1)NC(=O)[C@H](CC(=O)O)NC(=O)[C@@H](NC(=O)[C@H](CO)NC(=O)[C@H](CC(=O)O)NC(=O)[C@H](CCC(N)=O)NC(=O)[C@H](CC(C)C)NC(=O)[C@H](CC(C)C)NC(=O)[C@H](CCCNC(=N)N)NC(=O)[C@@H](NC(=O)CN)C(C)C)C(C)C)C(=O)N[C@@H](C)C(=O)N[C@@H](CC(=O)O)C(=O)O` [Vimentin 76 WT] were 358 nM and 596 nM.
The corresponding values for `CC[C@H](C)[C@H](NC(=O)[C@H](Cc1ccc(O)cc1)NC(=O)[C@H](CC(N)=O)NC(=O)[C@H](C)NC(=O)[C@H](Cc1ccccc1)NC(=O)[C@H](CCCNC(=N)N)NC(=O)[C@H](CC(=O)O)NC(=O)[C@H](CC(N)=O)NC(=O)[C@H](CC(C)C)NC(=O)[C@H](CCC(=O)O)NC(=O)[C@H](CCC(N)=O)NC(=O)[C@H](CC(C)C)NC(=O)[C@@H](N)CCC(=O)O)C(=O)N[C@@H](CC(=O)O)C(=O)N[C@@H](CCCCN)C(=O)O` [Vimentin 106 WT] are 3070 nM and greater than 40000 nM.
Taken in the same sequence, the figures for `CC[C@H](C)[C@H](NC(=O)[C@H](CCCCN)NC(=O)[C@H](CC(N)=O)NC(=O)[C@H](CCC(N)=O)NC(=O)[C@H](CCC(N)=O)NC(=O)[C@H](CCC(=O)O)NC(=O)[C@H](CC(C)C)NC(=O)[C@H](Cc1ccccc1)NC(=O)[C@H](CCCNC(=N)N)NC(=O)[C@@H](N)C(C)C)C(=O)N[C@@H](CC(C)C)C(=O)N[C@@H](CC(C)C)C(=O)N[C@@H](C)C(=O)N[C@@H](CCC(=O)O)C(=O)N[C@@H](CC(C)C)C(=O)O` [Vimentin 121 WT] were 5.7 nM and 513 nM.
